Experimental findings from ChEMBL document CHEMBL4316605, “3-Acyltetramic acids as a novel class of inhibitors for human kallikreins 5 and 7” (Bioorg Med Chem Lett, 2019) are described below.

Assay [1] concerns the target T1, Kallikrein-7 (Homo sapiens, UniProt P49862). Nature of the assay: Inhibition of human KLK7 assessed as reduction in enzyme activity.
Target sequence in this assay (P49862 whole entry): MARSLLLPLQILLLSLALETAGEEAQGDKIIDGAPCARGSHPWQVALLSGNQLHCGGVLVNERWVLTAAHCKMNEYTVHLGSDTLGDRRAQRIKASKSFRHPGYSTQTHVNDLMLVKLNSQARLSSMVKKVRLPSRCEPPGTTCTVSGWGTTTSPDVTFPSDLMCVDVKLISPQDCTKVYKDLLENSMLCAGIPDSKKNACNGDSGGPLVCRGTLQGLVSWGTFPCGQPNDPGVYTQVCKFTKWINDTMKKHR
The next assay has as its target T2, Kallikrein-5 (Homo sapiens, UniProt Q9Y337).
T2 sequence (Q9Y337 whole entry): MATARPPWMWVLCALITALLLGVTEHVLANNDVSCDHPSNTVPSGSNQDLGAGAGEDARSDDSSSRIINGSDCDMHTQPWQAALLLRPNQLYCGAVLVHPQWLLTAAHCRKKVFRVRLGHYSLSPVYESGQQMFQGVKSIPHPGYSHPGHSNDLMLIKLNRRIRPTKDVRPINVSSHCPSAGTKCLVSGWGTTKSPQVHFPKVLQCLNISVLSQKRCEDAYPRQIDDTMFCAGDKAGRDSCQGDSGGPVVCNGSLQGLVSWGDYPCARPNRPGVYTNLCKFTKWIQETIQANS
Nature of the assay: Inhibition of human KLK5 assessed as reduction in enzyme activity.

Assay [2] deals with Chymotrypsin (Homo sapiens) (UniProt Q99895+P17538+P40313+Q6GPI1). Nature of the assay: Inhibition of Chymotrypsin (unknown origin) assessed as residual enzyme activity at 10 uM. Format: protein assay.
The target in assay [3] is T3, Trypsin (Homo sapiens, UniProt P07477+P07478+P35030). Nature of the assay: Inhibition of trypsin (unknown origin) assessed as reduction in enzyme activity. Format: protein assay.
Assay [4] addresses Kallikrein-5 (Homo sapiens) (UniProt Q9Y337). Nature of the assay: Inhibition of human KLK5 assessed as residual enzyme activity at 10 uM.
The target of assay [5] is T1, Kallikrein-7. Nature of the assay: Inhibition of human KLK7 assessed as residual enzyme activity at 10 uM.
Target sequence in this assay (P49862 30-253 limits assumed): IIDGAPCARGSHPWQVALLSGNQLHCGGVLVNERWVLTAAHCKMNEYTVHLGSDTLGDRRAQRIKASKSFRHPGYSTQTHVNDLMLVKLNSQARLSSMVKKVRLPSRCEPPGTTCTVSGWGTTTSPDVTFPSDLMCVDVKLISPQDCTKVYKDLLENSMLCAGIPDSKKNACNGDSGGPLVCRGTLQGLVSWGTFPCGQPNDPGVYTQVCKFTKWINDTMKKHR
Assay [6] has as its target T3, Trypsin. Nature of the assay: Inhibition of trypsin (unknown origin) assessed as residual enzyme activity at 10 uM. Type of assay: protein assay.

On to `CCCCCCCCCCCCC/C(O)=C1/C(=O)[C@H](Cc2ccccc2)N(C(=O)OC(C)(C)C)C1=O`, for which the values for the IC50 at Kallikrein-7 [1], at Kallikrein-5 and at Trypsin [3] were 1700 nM, 4900 nM and 2400 nM, respectively. The Activity in assay [2] came out at 90%; in assay [4], 0%; on Kallikrein-7 [5], 0%; on Trypsin [6], 20%.

Turning to `CCCCCCCCCCCCCCCCC/C(O)=C1/C(=O)[C@H](Cc2ccccc2)N(C(=O)OC(C)(C)C)C1=O`, the IC50 was 2800 nM on Kallikrein-7 [1] and 17000 nM at Kallikrein-5. The Activity (in assay [4]; on Kallikrein-7 [5]) was 0% in each case.

`CCCCCCCCCCC/C(O)=C1/C(=O)[C@H](Cc2ccccc2)N(C(=O)OC(C)(C)C)C1=O`: the IC50 on Kallikrein-7 [1] was determined as 2300 nM; on Kallikrein-5, 3600 nM; on Trypsin [3] it was 2100 nM. Also, the Activity in assay [2] came out at 98%; in assay [4] it was 0%; on Kallikrein-7 [5], 0%; at Trypsin [6], 10%.

Take `CCCCCCCC/C=C\CCCCCCC/C(O)=C1/C(=O)[C@H](Cc2ccccc2)N(C(=O)OC(C)(C)C)C1=O`: the IC50 was determined as 2500 nM on Kallikrein-7 [1], 1800 nM on Kallikrein-5 and 2300 nM on Trypsin [3]. For the same compound, the Activity was found to be 87% in assay [2], 0% in assay [4], 0% on Kallikrein-7 [5] and 5% on Trypsin [6].

Consider `CC/C(O)=C1/C(=O)[C@H](Cc2ccccc2)N(C(=O)OC(C)(C)C)C1=O`, for which the IC50 on Kallikrein-7 [1] was found to be 11000 nM. Also, the values for the Activity (in assay [4]; at Kallikrein-7 [5]) were 80% and 50%, respectively.

For the compound `CCCCC/C=C\C/C=C\CCCCCCC/C(O)=C1/C(=O)[C@H](Cc2ccccc2)N(C(=O)OC(C)(C)C)C1=O`, the IC50 on Kallikrein-7 [1] and at Kallikrein-5 was 14000 nM throughout. Moreover, the Activity (in assay [4]; at Kallikrein-7 [5]) was 50% in each case.

For the compound `CC(C)C/C(O)=C1/C(=O)[C@H](Cc2ccccc2)N(C(=O)OC(C)(C)C)C1=O`, the Activity in assay [4] was found to be 80%; at Kallikrein-7 [5], 70%.

For `CCCCCCCCCCCCCCC/C(O)=C1/C(=O)[C@H](Cc2ccccc2)N(C(=O)OC(C)(C)C)C1=O`, the IC50 turned out to be 2900 nM at Kallikrein-7 [1] and 12000 nM at Kallikrein-5. For the same compound, the Activity (in assay [4]; at Kallikrein-7 [5]) was 0% each time.

Turning to `CCCC(C)/C(O)=C1/C(=O)[C@H](Cc2ccccc2)N(C(=O)OC(C)(C)C)C1=O` (some centres not stated), the IC50 turned out to be 2500 nM on Kallikrein-7 [1] and 8000 nM on Kallikrein-5. In addition, the Activity (in assay [4]; at Kallikrein-7 [5]) was 0% throughout.

As usually defined, the IC50 is the point on the concentration scale where inhibition reaches its midpoint.
